According to ChEMBL document CHEMBL1144896 (2003):

How the values were obtained:
Assay type in all cases: functional
NCI-H1299 [1] = assay: hTERT-SEAP (Human telomerase reverse transcriptase-SEAP) activity in non-small cell lung cancer H1299 cell at 22 uM concentration and level of cell viability determined in MTT assay
NCI-H1299 [2] = assay: hTERT-SEAP (Human telomerase reverse transcriptase-SEAP) activity in non-small cell lung cancer H1299 cell at 2.2 uM concentration and level of cell viability determined in MTT assay
BJ [3] = assay: Compound was tested for human telomerase reverse transcriptase-SEAP (hTERT-SEAP) activity in immortalized hTERT-BJI at 2.2 uM concentration
NCI-H1299 [4] = assay: Compound was tested for human telomerase reverse transcriptase-SEAP (hTERT-SEAP) activity in non-small cell lung cancer H1299 cell at 220.0 uM concentration
BJ [5] = assay: hTERT-SEAP (Human telomerase reverse transcriptase-SEAP) activity in immortalized hTERT-BJI at 220.0 uM concentration and level of cell viability determined in MTT assay
NCI-H1299 [6] = assay: Compound was tested for human telomerase reverse transcriptase-SEAP (hTERT-SEAP) activity in non-small cell lung cancer H1299 cell at 22 uM concentration
BJ [7] = assay: hTERT-SEAP (Human telomerase reverse transcriptase-SEAP) activity in immortalized hTERT-BJI at 22 uM concentration and level of cell viability determined in MTT assay
BJ [8] = assay: Compound was tested for human telomerase reverse transcriptase-SEAP (hTERT-SEAP) activity in immortalized hTERT-BJI at 22 uM concentration
NCI-H1299 [9] = assay: hTERT-SEAP (Human telomerase reverse transcriptase-SEAP) activity in non-small cell lung cancer H1299 cell at 220.0 uM concentration and level of cell viability determined in MTT assay
BJ [10] = assay: Compound was tested for human telomerase reverse transcriptase-SEAP (hTERT-SEAP) activity in immortalized hTERT-BJI at 220.0 uM concentration
NCI-H1299 [11] = assay: Compound was tested for human telomerase reverse transcriptase-SEAP (hTERT-SEAP) activity in non-small cell lung cancer H1299 cell at 2.2 uM concentration
BJ [12] = assay: hTERT-SEAP (Human telomerase reverse transcriptase-SEAP) activity in immortalized hTERT-BJI at 2.2 uM concentration and level of cell viability determined in MTT assay
BJ [13] = assay: Compound was tested for human telomerase reverse transcriptase-SEAP (hTERT-SEAP) activity in immortalized hTERT-BJI at 210.0 uM concentration
NCI-H1299 [14] = assay: Compound was tested for human telomerase reverse transcriptase-SEAP (hTERT-SEAP) activity in non-small cell lung cancer H1299 cell at 2.1 uM concentration
BJ [15] = assay: Compound was tested for human telomerase reverse transcriptase-SEAP (hTERT-SEAP) activity in immortalized hTERT-BJI at 21 uM concentration
BJ [16] = assay: hTERT-SEAP (Human telomerase reverse transcriptase-SEAP) activity in immortalized hTERT-BJI at 210.0 uM concentration and level of cell viability determined in MTT assay
BJ [17] = assay: hTERT-SEAP (Human telomerase reverse transcriptase-SEAP) activity in immortalized hTERT-BJI at 21 uM concentration and level of cell viability determined in MTT assay
NCI-H1299 [18] = assay: Compound was tested for human telomerase reverse transcriptase-SEAP (hTERT-SEAP) activity in non-small cell lung cancer H1299 cell at 21 uM concentration
NCI-H1299 [19] = assay: hTERT-SEAP (Human telomerase reverse transcriptase-SEAP) activity in non-small cell lung cancer H1299 cell at 21 uM concentration and level of cell viability determined in MTT assay
NCI-H1299 [20] = assay: hTERT-SEAP (Human telomerase reverse transcriptase-SEAP) activity in non-small cell lung cancer H1299 cell at 210.0 uM concentration and level of cell viability determined in MTT assay
NCI-H1299 [21] = assay: hTERT-SEAP (Human telomerase reverse transcriptase-SEAP) activity in non-small cell lung cancer H1299 cell at 2.1 uM concentration and level of cell viability determined in MTT assay
BJ [22] = assay: Compound was tested for human telomerase reverse transcriptase-SEAP (hTERT-SEAP) activity in immortalized hTERT-BJI at 2.1 uM concentration
NCI-H1299 [23] = assay: Compound was tested for human telomerase reverse transcriptase-SEAP (hTERT-SEAP) activity in non-small cell lung cancer H1299 cell at 210.0 uM concentration

| Compound | Relative viability (NCI-H1299 [1]) [%] | Relative viability (NCI-H1299 [2]) [%] | Relative SEAP activity (BJ [3]) [%] | Relative SEAP activity (NCI-H1299 [4]) [%] | Relative viability (BJ [5]) [%] | Relative SEAP activity (NCI-H1299 [6]) [%] | Relative viability (BJ [7]) [%] | Relative SEAP activity (BJ [8]) [%] | Relative viability (NCI-H1299 [9]) [%] | Relative SEAP activity (BJ [10]) [%] | Relative SEAP activity (NCI-H1299 [11]) [%] | Relative viability (BJ [12]) [%] | Relative SEAP activity (BJ [13]) [%] | Relative SEAP activity (NCI-H1299 [14]) [%] | Relative SEAP activity (BJ [15]) [%] | Relative viability (BJ [16]) [%] | Relative viability (BJ [17]) [%] | Relative SEAP activity (NCI-H1299 [18]) [%] | Relative viability (NCI-H1299 [19]) [%] | Relative viability (NCI-H1299 [20]) [%] | other results |
| --- | --- | --- | --- | --- | --- | --- | --- | --- | --- | --- | --- | --- | --- | --- | --- | --- | --- | --- | --- | --- | --- |
| O=C1c2cccc(SCCc3ccccc3)c2C(=O)c2cccc(SCCc3ccccc3)c21 | 51 | 93 | 119 | 97 | 35 | 102 | 54 | 109 | 27 | 110 | 108 | 91 | – | – | – | – | – | – | – | – | – |
| Cc1ccc(C(=O)Oc2cccc3c2C(=O)c2cccc(OC(=O)c4ccc(C)cc4)c2C3=O)cc1 | – | – | – | – | – | – | – | – | – | – | – | – | 99 | 98 | 126 | 56 | 98 | 95 | 33 | 32 | Relative viability (NCI-H1299 [21]): 61%; Relative SEAP activity (BJ [22]): 130%; Relative SEAP activity (NCI-H1299 [23]): 95% |
| Nc1ccc(Sc2cccc3c2C(=O)c2cccc(Sc4ccc(N)cc4)c2C3=O)cc1 | 76 | 103 | 97 | 84 | – | 95 | 65 | 97 | 42 | 26 | 100 | 86 | – | – | – | – | – | – | – | – | – |
| O=C1c2cccc(SCc3ccccc3)c2C(=O)c2cccc(SCc3ccccc3)c21 | 44 | 83 | 117 | 100 | 47 | 100 | 98 | 112 | 34 | 87 | 97 | 121 | – | – | – | – | – | – | – | – | – |
| Nc1cccc(Sc2cccc3c2C(=O)c2cccc(Sc4cccc(N)c4)c2C3=O)c1 | 68 | 92 | 118 | 101 | 4 | 109 | 9 | 41 | 32 | 8 | 106 | 104 | – | – | – | – | – | – | – | – | – |
| O=C1c2cccc(SCCCCCCO)c2C(=O)c2cccc(SCCCCCCO)c21 | – | – | – | – | – | – | – | – | – | – | – | – | 75 | 110 | 128 | 40 | 70 | 100 | 94 | 36 | Relative viability (NCI-H1299 [21]): 99%; Relative SEAP activity (BJ [22]): 140%; Relative SEAP activity (NCI-H1299 [23]): 68% |
| Cc1ccc(Sc2cccc3c2C(=O)c2cccc(Sc4ccc(C)cc4)c2C3=O)cc1 | 41 | 84 | 132 | 90 | 22 | 103 | 77 | 109 | 25 | 87 | 117 | 111 | – | – | – | – | – | – | – | – | – |
| Cc1cccc(C(=O)Oc2cccc3c2C(=O)c2cccc(OC(=O)c4cccc(C)c4)c2C3=O)c1 | – | – | – | – | – | – | – | – | – | – | – | – | 86 | 104 | 124 | 47 | 54 | 116 | 28 | 29 | Relative viability (NCI-H1299 [21]): 26%; Relative SEAP activity (BJ [22]): 141%; Relative SEAP activity (NCI-H1299 [23]): 110% |
| O=C(Oc1cccc2c1C(=O)c1cccc(OC(=O)c3ccccc3)c1C2=O)c1ccccc1 | 60 | 99 | 137 | 86 | 51 | 94 | 87 | 122 | 33 | 84 | 88 | 103 | – | – | – | – | – | – | – | – | – |
| O=C(Cc1ccccc1)Oc1cccc2c1C(=O)c1cccc(OC(=O)Cc3ccccc3)c1C2=O | – | – | – | – | – | – | – | – | – | – | – | – | 100 | 98 | 125 | 64 | 97 | 101 | 53 | 30 | Relative viability (NCI-H1299 [21]): 91%; Relative SEAP activity (BJ [22]): 129%; Relative SEAP activity (NCI-H1299 [23]): 142% |
| Cc1ccccc1C(=O)Oc1cccc2c1C(=O)c1cccc(OC(=O)c3ccccc3C)c1C2=O | – | – | – | – | – | – | – | – | – | – | – | – | 94 | 97 | 120 | 39 | 82 | 91 | 36 | 45 | Relative viability (NCI-H1299 [21]): 72%; Relative SEAP activity (BJ [22]): 129%; Relative SEAP activity (NCI-H1299 [23]): 90% |
